Experimental data from patent publication US12109294B2, “Oily moisturizer and topical skin composition containing same” (The Nisshin OilliO Group, Ltd., priority 2018, dated 2024).

System: skin stratum corneum (forearm)
Experiment: Evaluation test of moisture retention effect upon single application of esterified product (stratum corneum moisture content, SKICON-200)
Type: in vivo, human
Description: The moisture content of the stratum corneum can be investigated using the electrical conductivity (μS) of the stratum corneum. The electrical conductivity (μS) of the stratum corneum is dependent on the water content of the stratum corneum, and the greater the moisture content of the stratum corneum, the larger the electrical conductivity (μS) of the stratum corneum becomes. The electrical conductivity (μS) of the stratum corneum can be measured by a constant-pressure sensor probe contact high-frequency conductance exchange method. Specifically, the electrical conductivity (μS) of the stratum corneum can be measured by using a stratum corneum moisture content measuring device based on the above measurement method, such as a stratum comeum moisture content measuring device “SKICON-200” manufactured by IBS Co., Ltd.
After maintaining the state with the oily moisturizer applied to the skin for a certain period, for example 30 to 90 minutes, the oily moisturizer is removed from the skin surface. […] Using the obtained values for the electrical conductivity (uS) of the stratum corneum before and after application of the oily moisturizer, the moisture retention effect value is calculated and the moisture retention effect is evaluated. […]
Subsequently, 40 μL of the test sample being evaluated was applied uniformly to the square measurement region of the forearm. […]

Structure (SMILES): OCC(O)CO [glycerol]
- Increase in the electrical conductivity that corresponds with the moisture retention effect value (60 minutes after application, still applied to the skin surface, prior to removal using water): 477 μS
- Moisture retention effect value (single application, removal with cotton swab immersed in water rather than hexane): 8 μS
